Columns and labels:
Homo sapiens [1] = species on record: Homo sapiens; conditions: in vivo
[2] = (§1) Total body clearance in human; conditions: in vivo
clinical = conditions: human, in vivo
Homo sapiens [3] = species on record: Homo sapiens; assay: as §1; conditions: in vivo

| Structure (SMILES) | CL_renal (Homo sapiens [1]) [mL/min/kg] | clearance [2] [mL/min/kg] | CL renal (clinical) [mL/min/kg] | CL (Homo sapiens [3]) [mL/min/kg] |
| --- | --- | --- | --- | --- |
| CCc1cccc2cc(C(O)CNC(C)(C)C)oc12 (centres undefined) [BUFURALOL] | 0 | – | – | – |
| COCc1c(C(C)C)nc(C(C)C)c(/C=C/[C@@H](O)C[C@@H](O)CC(=O)O)c1-c1ccc(F)cc1 [CERIVASTATIN] | 0 | – | – | – |
| CC1=NS(=O)(=O)c2cc(Cl)ccc2N1 [DIAZOXIDE] | – | 0.06 | 0.06 | – |
| Cc1onc(-c2c(Cl)cccc2Cl)c1C(=O)N[C@@H]1C(=O)N2[C@@H]1SC(C)(C)[C@@H]2C(=O)O [DICLOXACILLIN] | – | 2 | 1.2 | – |
| CC(C)N(CCC(C(N)=O)(c1ccccc1)c1ccccn1)C(C)C (centres undefined) [DISOPYRAMIDE] | – | 0.9 | 0.5 | – |
| CCCn1c(=O)[nH]c(=O)c2[nH]cnc21 [ENPROFYLLINE] | – | 4 | 3.56 | – |
| CCN(CC)C(=O)/C(C#N)=C/c1cc(O)c(O)c([N+](=O)[O-])c1 [ENTACAPONE] | – | 11.7 | 6.4 | – |
| COc1cccc2c1C(=O)c1c(O)c3c(c(O)c1C2=O)C[C@@](O)(C(=O)CO)C[C@@H]3O[C@H]1C[C@H](N)[C@@H](O)[C@H](C)O1 [EPIRUBICIN] | – | 20 | 2.44 | – |
| CC[C@@H](CO)NCCN[C@@H](CC)CO [ETHAMBUTOL] | – | 10 | 7.3 | – |
| Nc1nc(=O)[nH]cc1F [FLUCYTOSINE] | – | 2 | 1.98 | – |
| C[C@@H]1O[C@@H]1P(=O)(O)O [FOSFOMYCIN] | – | 2 | 2 | – |
| N=C(N)NC(=O)Cc1c(Cl)cccc1Cl [GUANFACINE] | – | 5.9 | 3 | – |
| CCCCCCCN(CC)CCCC(O)c1ccc(NS(C)(=O)=O)cc1 (centres undefined) [IBUTILIDE] | – | 25 | 2.5 | – |
| O=[N+]([O-])O[C@@H]1CO[C@H]2[C@@H]1OC[C@@H]2O [ISOSORBIDE MONONITRATE] | – | 2 | 0.1 | – |
| Nc1nc2c(c(=O)[nH]1)N(C=O)C(CNc1ccc(C(=O)N[C@@H](CCC(=O)O)C(=O)O)cc1)CN2 (some centres undefined) [LEUCOVORIN] | – | 5.3 | 0.8 | – |
| O=C1Nc2ccc(Cl)cc2C(c2ccccc2Cl)=NC1O (centres undefined) [LORAZEPAM] | – | 1 | 0.01 | – |
| CC1(C)S[C@@H]2[C@H](NC(=O)[C@H](NC(=O)N3CCN(S(C)(=O)=O)C3=O)c3ccccc3)C(=O)N2[C@H]1C(=O)O [MEZLOCILLIN] | – | 5.23 | 2.4 | – |
| Cc1ncc2n1-c1ccc(Cl)cc1C(c1ccccc1F)=NC2 [MIDAZOLAM] | 0 | – | – | – |
| CN1CCN2c3ncccc3Cc3ccccc3C2C1 (centres undefined) [MIRTAZAPINE] | – | 8 | 0.32 | – |
| O=C(NCCN1CCOCC1)c1ccc(Cl)cc1 [MOCLOBEMIDE] | – | 10 | 0.05 | – |
| Cc1ccnc2c1NC(=O)c1cccnc1N2C1CC1 [NEVIRAPINE] | – | 0.3 | 0.01 | – |

| Structure (SMILES) | CL_renal (Homo sapiens [1]) [mL/min/kg] | clearance [2] [mL/min/kg] | CL renal (clinical) [mL/min/kg] | CL (Homo sapiens [3]) [mL/min/kg] |
| --- | --- | --- | --- | --- |
| CNCCC=C1c2ccccc2CCc2ccccc21 [NORTRIPTYLINE] | – | 10 | 0.2 | – |
| CC1COc2c(N3CCN(C)CC3)c(F)cc3c(=O)c(C(=O)O)cn1c23 (centres undefined) [OFLOXACIN] | – | 3.5 | 2.7 | – |
| CN(C)[C@@H]1C(O)=C(C(N)=O)C(=O)[C@@]2(O)C(O)=C3C(=O)c4c(O)cccc4[C@@](C)(O)[C@H]3[C@H](O)[C@@H]12 [OXYTETRACYCLINE] | – | 2 | 1.4 | – |
| CCN1CCN(C(=O)N[C@@H](C(=O)N[C@@H]2C(=O)N3[C@@H]2SC(C)(C)[C@@H]3C(=O)O)c2ccccc2)C(=O)C1=O [PIPERACILLIN] | – | 4 | 3.2 | – |
| CC(=O)Nc1ccc(OCC(O)CNC(C)C)cc1 (centres undefined) [PRACTOLOL] | – | 2 | 1.7 | – |
| CO[C@H]1/C=C/O[C@@]2(C)Oc3c(C)c(O)c4c(O)c(c(/C=N/N5CCN(C)CC5)c(O)c4c3C2=O)NC(=O)/C(C)=C\C=C\[C@H](C)[C@H](O)[C@@H](C)[C@@H](O)[C@@H](C)[C@H](OC(C)=O)[C@@H]1C [RIFAMPIN] | – | 1.5 | 0.2 | – |
| CN(C)CCc1c[nH]c2ccc(Cn3cncn3)cc12 [RIZATRIPTAN] | – | 19 | 5.32 | – |
| C#CCN(C)[C@H](C)Cc1ccccc1 [SELEGILINE] | – | 20 | 0.2 | – |
| CN[C@@H]1[C@@H](O)[C@@H](O[C@@H]2[C@@H](O)[C@H](O[C@H]3OC(CN)=CC[C@H]3N)[C@@H](N)C[C@H]2N)OC[C@]1(C)O [SISOMICIN] | – | 1 | 0.76 | – |
| N[C@@H](CC(=O)N1CCn2c(nnc2C(F)(F)F)C1)Cc1cc(F)c(F)cc1F [SITAGLIPTIN] | – | 6 | 4.74 | – |
| CC(C)NCC(O)c1ccc(NS(C)(=O)=O)cc1 (centres undefined) [SOTALOL] | – | 2 | 1.7 | – |
| CCN1CCCC1CNC(=O)c1cc(S(N)(=O)=O)ccc1OC (centres undefined) [SULPIRIDE] | – | 1.83 | 1.7 | – |
| C=CC[C@@H]1/C=C(\C)C[C@H](C)C[C@H](OC)[C@H]2O[C@@](O)(C(=O)C(=O)N3CCCC[C@H]3C(=O)O[C@H](/C(C)=C/[C@@H]3CC[C@@H](O)[C@H](OC)C3)[C@H](C)[C@@H](O)CC1=O)[C@H](C)C[C@@H]2OC [TACROLIMUS ANHYDROUS] | – | 0.7 | 0.01 | – |
| CCCCC/C=C\CCC(=O)N[C@H]1[C@H](Oc2c3cc4cc2Oc2ccc(cc2Cl)[C@@H](O[C@@H]2O[C@H](CO)[C@@H](O)[C@H](O)[C@H]2NC(C)=O)[C@@H]2NC(=O)[C@H](NC(=O)[C@@H]4NC(=O)[C@H]4NC(=O)[C@@H](Cc5ccc(c(Cl)c5)O3)NC(=O)[C@H](N)c3ccc(O)c(c3)Oc3cc(O)cc4c3)c3ccc(O)c(c3)-c3c(O[C@H]4O[C@H](CO)[C@@H](O)[C@H](O)[C@@H]4O)cc(O)cc3[C@@H](C(=O)O)NC2=O)O[C@H](CO)[C@@H](O)[C@@H]1O [TEICOPLANIN A2-1] | – | 0.17 | 0.17 | – |
| CN1C(C(=O)Nc2ccccn2)=C(O)c2sccc2S1(=O)=O [TENOXICAM] | 0 | 0.03 | – | – |
| CC1(C)S[C@@H]2[C@H](NC(=O)[C@H](C(=O)O)c3ccsc3)C(=O)N2[C@H]1C(=O)O [TICARCILLIN] | – | 2.2 | 1.9 | – |
| CCS(=O)(=O)CCn1c([N+](=O)[O-])cnc1C [TINIDAZOLE] | – | 0.6 | 0.11 | – |
| CCCCS(=O)(=O)N[C@@H](Cc1ccc(OCCCCC2CCNCC2)cc1)C(=O)O [TIROFIBAN] | – | – | 1.59 | 4.3 |
| CCC1=C[C@@H]2CN(C1)Cc1c([nH]c3ccccc13)[C@@](C(=O)OC)(c1cc3c(cc1OC)N(C)[C@H]1[C@@](O)(C(=O)OC)[C@H](OC(C)=O)[C@]4(CC)C=CCN5CC[C@]31[C@@H]54)C2 [VINORELBINE] | – | 20 | 2.2 | – |
| O=C(NCCNCC(O)COc1ccc(O)cc1)N1CCOCC1 (centres undefined) [XAMOTEROL] | – | 3 | 1.86 | – |
